In ChEMBL document CHEMBL3885861, “Open TG-GATES”:

Species on record: Rattus norvegicus
Assay: Open TG-GATES - Regimen: Daily Repeat
Assay type: toxicity, organism-based, Sprague-Dawley
Parameters: regimen Daily Repeat, gender Male, age 6 weeks
Details: in vivo, po, route gavage; for APTT / Bas / Eos / Fbg / Hb / Ht / Lym / MCH / MCHC / MCV / Mono / Neu / PT / Plat / RBC / Ret / WBC: tissue Blood; for KIDNEY_L / KIDNEY_R / KIDNEY_TOTAL: tissue Kidney; for LIVER: tissue Liver; for A/G / ALP / ALT / AST / BUN / CRE / Ca / Cl / DBIL / GLC / IP / K / LDH / Na / PL / RALB / TBIL / TC / TG / TP / gamma-GTP: tissue Plasma
[1] = 0 mg/kg, 72 h, dose level Control, time 3 day
[2] = 0 mg/kg, […], dose level Control, time 7 day
[3] = 0 mg/kg, […], dose level Control, time 14 day
[4] = 0 mg/kg, […], dose level Control, time 28 day
[5] = 100 mg/kg, 72 h, dose level Low, time 3 day
[6] = 100 mg/kg, […], dose level Low, time 7 day
[7] = 100 mg/kg, […], dose level Low, time 14 day
[8] = 100 mg/kg, […], dose level Low, time 28 day

CC[C@@H](CO)NCCN[C@@H](CC)CO [ETHAMBUTOL]
TERMINAL_BW [1]: 245.1 g
APTT [1]: 21.9 s
Bas [1]: 0%
Eos [1]: 1%
Fbg [1]: 308.2 mg/dL
Hb [1]: 13.6 g/dL
Ht [1]: 38.8%
Lym [1]: 80.6%
MCH [1]: 21.9 pg
MCHC [1]: 34.9%
MCV [1]: 62.6 fL
Mono [1]: 3.2%
Neu [1]: 13.8%
PT [1]: 16.1 s
Plat [1]: 127.2 x10_4/uL
RBC [1]: 619.8 x10_4/ul
Ret [1]: 6.5%
WBC [1]: 109.6 x10_2/uL
KIDNEY_L [1]: 1.1 g
KIDNEY_R [1]: 1.1 g
KIDNEY_TOTAL [1]: 2.2 g
LIVER [1]: 11.5 g
A/G [1]: 1.1
ALP [1]: 1450 IU/L
ALT [1]: 45.4 IU/L
AST [1]: 68.6 IU/L
BUN [1]: 19.2 mg/dL
CRE [1]: 0.2 mg/dL
Ca [1]: 10.9 mg/dL
Cl [1]: 107 meq/L
DBIL [1]: 0 mg/dL
GLC [1]: 194.6 mg/dL
IP [1]: 7.6 mg/dL
K [1]: 4.4 meq/L
LDH [1]: 172.4 IU/L
Na [1]: 140.2 meq/L
PL [1]: 155.6 mg/dL
RALB [1]: 3 g/dL
TBIL [1]: 0.004 mg/dL
TC [1]: 78.4 mg/dL
TG [1]: 123.2 mg/dL
TP [1]: 5.7 g/dL
gamma-GTP [1]: 1.4 IU/L
TERMINAL_BW [2]: 267.6 g
TERMINAL_BW [3]: 330.7 g
TERMINAL_BW [4]: 391.8 g
APTT [2]: 23.2 s
Bas [2]: 0%
Eos [2]: 1%
Fbg [2]: 338.4 mg/dL
Hb [2]: 14.1 g/dL
Ht [2]: 41.1%
Lym [2]: 83%
MCH [2]: 21.1 pg
MCHC [2]: 34.3%
MCV [2]: 61.4 fL
Mono [2]: 2.2%
Neu [2]: 12.8%
PT [2]: 15.4 s
Plat [2]: 110.1 x10_4/uL
RBC [2]: 671 x10_4/ul
Ret [2]: 5.1%
WBC [2]: 113 x10_2/uL
APTT [3]: 21.6 s
Bas [3]: 0%
Eos [3]: 0.8%
Fbg [3]: 321.6 mg/dL
Hb [3]: 14.4 g/dL
Ht [3]: 42.1%
Lym [3]: 80%
MCH [3]: 20.5 pg
MCHC [3]: 34.2%
MCV [3]: 60.1 fL
Mono [3]: 2.4%
Neu [3]: 15%
PT [3]: 16.3 s
Plat [3]: 103.5 x10_4/uL
RBC [3]: 701.6 x10_4/ul
Ret [3]: 4.4%
WBC [3]: 116.4 x10_2/uL
APTT [4]: 26.2 s
Bas [4]: 0%
Eos [4]: 1.2%
Fbg [4]: 315.8 mg/dL
Hb [4]: 14.7 g/dL
Ht [4]: 42.6%
Lym [4]: 83.4%
MCH [4]: 19.3 pg
MCHC [4]: 34.4%
MCV [4]: 56 fL
Mono [4]: 2.6%
Neu [4]: 11.4%
PT [4]: 15.6 s
Plat [4]: 106 x10_4/uL
RBC [4]: 761.2 x10_4/ul
Ret [4]: 3.1%
WBC [4]: 131.5 x10_2/uL
KIDNEY_L [2]: 1.1 g
KIDNEY_R [2]: 1.1 g
KIDNEY_TOTAL [2]: 2.2 g
KIDNEY_L [3]: 1.3 g
KIDNEY_R [3]: 1.3 g
KIDNEY_TOTAL [3]: 2.6 g
KIDNEY_L [4]: 1.4 g
KIDNEY_R [4]: 1.4 g
KIDNEY_TOTAL [4]: 2.8 g
LIVER [2]: 12.3 g
LIVER [3]: 14.5 g
LIVER [4]: 16.5 g
A/G [2]: 1.1
ALP [2]: 1523.4 IU/L
ALT [2]: 43 IU/L
AST [2]: 69.6 IU/L
BUN [2]: 17.8 mg/dL
CRE [2]: 0.2 mg/dL
Ca [2]: 10.5 mg/dL
Cl [2]: 106.8 meq/L
DBIL [2]: 0 mg/dL
GLC [2]: 198 mg/dL
IP [2]: 7.3 mg/dL
K [2]: 4.1 meq/L
LDH [2]: 200.2 IU/L
Na [2]: 142.2 meq/L
PL [2]: 147.6 mg/dL
RALB [2]: 3 g/dL
TBIL [2]: 0.006 mg/dL
TC [2]: 75.4 mg/dL
TG [2]: 91.6 mg/dL
TP [2]: 5.6 g/dL
gamma-GTP [2]: 1.8 IU/L
A/G [3]: 1.2
ALP [3]: 1341.2 IU/L
ALT [3]: 41 IU/L
AST [3]: 72.6 IU/L
BUN [3]: 19.6 mg/dL
CRE [3]: 0.2 mg/dL
Ca [3]: 10.5 mg/dL
Cl [3]: 106.4 meq/L
DBIL [3]: 0 mg/dL
GLC [3]: 196.6 mg/dL
IP [3]: 7.2 mg/dL
K [3]: 4 meq/L
LDH [3]: 191.2 IU/L
Na [3]: 141.6 meq/L
PL [3]: 139.6 mg/dL
RALB [3]: 3 g/dL
TBIL [3]: 0 mg/dL
TC [3]: 64.2 mg/dL
TG [3]: 116.4 mg/dL
TP [3]: 5.7 g/dL
gamma-GTP [3]: 1.6 IU/L
A/G [4]: 1
ALP [4]: 977.2 IU/L
ALT [4]: 41 IU/L
AST [4]: 67 IU/L
BUN [4]: 19.4 mg/dL
CRE [4]: 0.3 mg/dL
Ca [4]: 10.3 mg/dL
Cl [4]: 105.8 meq/L
DBIL [4]: 0 mg/dL
GLC [4]: 208 mg/dL
IP [4]: 6.8 mg/dL
K [4]: 4.1 meq/L
LDH [4]: 156 IU/L
Na [4]: 142.2 meq/L
PL [4]: 143.6 mg/dL
RALB [4]: 3.1 g/dL
TBIL [4]: 0.008 mg/dL
TC [4]: 72.8 mg/dL
TG [4]: 100.8 mg/dL
TP [4]: 6.2 g/dL
gamma-GTP [4]: 2.4 IU/L
TERMINAL_BW [5]: 243.1 g
APTT [5]: 21.1 s
Bas [5]: 0%
Eos [5]: 1%
Fbg [5]: 341.6 mg/dL
Hb [5]: 13.4 g/dL
Ht [5]: 38.6%
Lym [5]: 80.4%
MCH [5]: 21.4 pg
MCHC [5]: 34.9%
MCV [5]: 61.5 fL
Mono [5]: 3%
Neu [5]: 14.2%
PT [5]: 15.8 s
Plat [5]: 123.9 x10_4/uL
RBC [5]: 627.8 x10_4/ul
Ret [5]: 6.4%
WBC [5]: 92.5 x10_2/uL
KIDNEY_L [5]: 1.1 g
KIDNEY_R [5]: 1 g
KIDNEY_TOTAL [5]: 2.1 g
LIVER [5]: 12 g
A/G [5]: 1.2
ALP [5]: 1628.8 IU/L
ALT [5]: 45.2 IU/L
AST [5]: 72.4 IU/L
BUN [5]: 17.4 mg/dL
CRE [5]: 0.2 mg/dL
Ca [5]: 10.8 mg/dL
Cl [5]: 107 meq/L
DBIL [5]: 0 mg/dL
GLC [5]: 187 mg/dL
IP [5]: 7.2 mg/dL
K [5]: 4.1 meq/L
LDH [5]: 158.4 IU/L
Na [5]: 140.8 meq/L
PL [5]: 156.4 mg/dL
RALB [5]: 3.1 g/dL
TBIL [5]: 0.016 mg/dL
TC [5]: 82.2 mg/dL
TG [5]: 117.8 mg/dL
TP [5]: 5.6 g/dL
gamma-GTP [5]: 1.6 IU/L
TERMINAL_BW [6]: 272 g
TERMINAL_BW [7]: 312.5 g
TERMINAL_BW [8]: 351.2 g
APTT [6]: 22.4 s
Bas [6]: 0%
Eos [6]: 0.8%
Fbg [6]: 340.4 mg/dL
Hb [6]: 13.9 g/dL
Ht [6]: 40.1%
Lym [6]: 80.6%
MCH [6]: 21.4 pg
MCHC [6]: 34.6%
MCV [6]: 62 fL
Mono [6]: 2.6%
Neu [6]: 14.8%
PT [6]: 15.8 s
Plat [6]: 125.3 x10_4/uL
RBC [6]: 646.8 x10_4/ul
Ret [6]: 5.9%
WBC [6]: 109.9 x10_2/uL
APTT [7]: 22.7 s
Bas [7]: 0%
Eos [7]: 1.2%
Fbg [7]: 318.2 mg/dL
Hb [7]: 14 g/dL
Ht [7]: 40.9%
Lym [7]: 80%
MCH [7]: 20.5 pg
MCHC [7]: 34.2%
MCV [7]: 60 fL
Mono [7]: 2.6%
Neu [7]: 15%
PT [7]: 16.9 s
Plat [7]: 110.4 x10_4/uL
RBC [7]: 681.8 x10_4/ul
Ret [7]: 4.5%
WBC [7]: 127.4 x10_2/uL
APTT [8]: 23.2 s
Bas [8]: 0%
Eos [8]: 1%
Fbg [8]: 288.8 mg/dL
Hb [8]: 14.5 g/dL
Ht [8]: 41.9%
Lym [8]: 81.2%
MCH [8]: 18.3 pg
MCHC [8]: 34.7%
MCV [8]: 52.9 fL
Mono [8]: 2%
Neu [8]: 14%
PT [8]: 16.6 s
Plat [8]: 94.5 x10_4/uL
RBC [8]: 792.8 x10_4/ul
Ret [8]: 2.6%
WBC [8]: 137.8 x10_2/uL
KIDNEY_L [6]: 1.1 g
KIDNEY_R [6]: 1.1 g
KIDNEY_TOTAL [6]: 2.3 g
KIDNEY_L [7]: 1.3 g
KIDNEY_R [7]: 1.3 g
KIDNEY_TOTAL [7]: 2.6 g
KIDNEY_L [8]: 1.3 g
KIDNEY_R [8]: 1.4 g
KIDNEY_TOTAL [8]: 2.7 g
LIVER [6]: 13.7 g
LIVER [7]: 14.2 g
LIVER [8]: 15.1 g
A/G [6]: 1.1
ALP [6]: 1577.2 IU/L
ALT [6]: 42.2 IU/L
AST [6]: 67.2 IU/L
BUN [6]: 18.2 mg/dL
CRE [6]: 0.2 mg/dL
Ca [6]: 10.4 mg/dL
Cl [6]: 106.6 meq/L
DBIL [6]: 0 mg/dL
GLC [6]: 185.4 mg/dL
IP [6]: 7.6 mg/dL
K [6]: 4 meq/L
LDH [6]: 154.6 IU/L
Na [6]: 141.8 meq/L
PL [6]: 147.6 mg/dL
RALB [6]: 3 g/dL
TBIL [6]: 0.01 mg/dL
TC [6]: 74.8 mg/dL
TG [6]: 113.6 mg/dL
TP [6]: 5.8 g/dL
gamma-GTP [6]: 2.4 IU/L
A/G [7]: 1.2
ALP [7]: 1502.6 IU/L
ALT [7]: 47.4 IU/L
AST [7]: 75.2 IU/L
BUN [7]: 19.6 mg/dL
CRE [7]: 0.2 mg/dL
Ca [7]: 10.3 mg/dL
Cl [7]: 106.4 meq/L
DBIL [7]: 0 mg/dL
GLC [7]: 195.4 mg/dL
IP [7]: 6.8 mg/dL
K [7]: 4.1 meq/L
LDH [7]: 144.6 IU/L
Na [7]: 141 meq/L
PL [7]: 132.8 mg/dL
RALB [7]: 3 g/dL
TBIL [7]: 0.014 mg/dL
TC [7]: 67 mg/dL
TG [7]: 81 mg/dL
TP [7]: 5.5 g/dL
gamma-GTP [7]: 2 IU/L
A/G [8]: 1.1
ALP [8]: 1233.8 IU/L
ALT [8]: 47.4 IU/L
AST [8]: 77 IU/L
BUN [8]: 20.8 mg/dL
CRE [8]: 0.2 mg/dL
Ca [8]: 9.8 mg/dL
Cl [8]: 106.4 meq/L
DBIL [8]: 0 mg/dL
GLC [8]: 195.6 mg/dL
IP [8]: 6 mg/dL
K [8]: 3.9 meq/L
LDH [8]: 143.6 IU/L
Na [8]: 141.8 meq/L
PL [8]: 133 mg/dL
RALB [8]: 2.9 g/dL
TBIL [8]: 0.026 mg/dL
TC [8]: 76.8 mg/dL
TG [8]: 62.4 mg/dL
TP [8]: 5.7 g/dL
gamma-GTP [8]: 1.8 IU/L
